Data taken from ChEMBL document CHEMBL1152766, “Bioactive constituents from the leaves of Clinacanthus nutans Lindau” (Bioorg Med Chem, 2009).

Assays:
[1] = Cytotoxicity against african green monkey Vero cells after 72 hrs; format: cell-based; conditions: chlorocebus sabaeus, read-out: MNCC
Human alphaherpesvirus 1 [2] = test: Antiviral activity against 1000 PFU/ml infectious dose of HSV1 strain F infected in african green monkey Vero cells after 72 hrs by plaque reduction assay; format: functional, organism-based; conditions: Human alphaherpesvirus 1, strain F
Human alphaherpesvirus 1 [3] = test: Antiviral activity against 1000 PFU/ml infectious dose of HSV1 strain F infected in african green monkey Vero cells assessed as inhibition of virus in post-viral entry step at 6.21 uM after 72 hrs by plaque reduction assay; format: functional; set-up: scale not given: the % may be the effect or the level left
Human alphaherpesvirus 1 [4] = test: Antiviral activity against 1000 PFU/ml infectious dose of HSV1 strain F infected in african green monkey Vero cells assessed as inhibition of virus in pre-viral entry step at 6.21 uM after 72 hrs by plaque reduction assay; format: functional; set-up: scale not given: the % may be the effect or the level left
Human alphaherpesvirus 1 [5] = test: Antiviral activity against 1000 PFU/ml infectious dose of HSV1 strain F infected in african green monkey Vero cells assessed as inhibition of virus in pre-viral entry step at 5.89 uM after 72 hrs by plaque reduction assay; format: functional; set-up: scale not given: the % may be the effect or the level left
Human alphaherpesvirus 1 [6] = test: Antiviral activity against 1000 PFU/ml infectious dose of HSV1 strain F infected in african green monkey Vero cells assessed as inhibition of virus in post-viral entry step at 5.89 uM after 72 hrs by plaque reduction assay; format: functional; set-up: scale not given: the % may be the effect or the level left

| Compound | MNTC at 72 h [1] | IC50 (Human alphaherpesvirus 1 [2]) | Activity (Human alphaherpesvirus 1 [3]) | Activity (Human alphaherpesvirus 1 [4]) | Activity (Human alphaherpesvirus 1 [5]) | Activity (Human alphaherpesvirus 1 [6]) |
| --- | --- | --- | --- | --- | --- | --- |
| C=Cc1c(C)c2cc3nc(c4c5[nH]c(cc6nc(cc1[nH]2)C(C)=C6CC)c(C)c5C(=O)[C@]4(O)C(=O)OC)[C@@H](CCC(=O)O/C=C(\C)CCCC(C)CCCC(C)CCCC(C)C)[C@@H]3C (some centres not stated) | 6.21 µM | 3.11 nM | 30% | 100% |  |  |
| C=Cc1c(C)c2cc3nc(c4c5[nH]c(cc6nc(cc1[nH]2)C(C)=C6CC)c(C)c5C(=O)[C@@]4(O)C(=O)OC)[C@@H](CCC(=O)O/C=C(\C)CCCC(C)CCCC(C)CCCC(C)C)[C@@H]3C (some centres not stated) | 6.21 µM | 3.11 nM | 30% | 100% |  |  |
| C=Cc1c(C)c2cc3nc(c4c5[nH]c(cc6nc(cc1[nH]2)C(C=O)=C6CC)c(C)c5C(=O)[C@@]4(O)C(=O)OC)[C@@H](CCC(=O)O/C=C(\C)CCCC(C)CCCC(C)CCCC(C)C)[C@@H]3C (some centres not stated) [13(2)-HYDROXY-(13(2)-R)-PHAEOPHYTIN B] | 5.89 µM | 1.96 nM |  |  | 100% | 30% |
